Several values for one entry are separate records, joined by “and”; a condition that tells them apart may be missing. Identical values can stand only once.
Key:
rat α-thrombin = biological target: T1, rat α-thrombin (Rattus norvegicus, UniProt P18292); assay: Protease inhibition, Ki for rat α-thrombin (fluorogenic substrate Z-Gly-Gly-Arg-AMC); format: biochemical; details: replicates R1-R3
T1 construct: rat α-thrombin (Molecular Innovations) were used at final concentrations of 2 nM and 3 nM; purchased Molecular Innovations
Procedure, shortened: (§1)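 Ki values come from Cheng–Prusoff correction of IC50, itself fitted by four-parameter logistic regression of activity versus a no-peptide control. Assays used 2 nM human or 3 nM rat thrombin, 50 μM Z-Gly-Gly-Arg-AMC, 30 min kinetic fluorescence at 25 °C.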

porcine pepsin = biological target: T2, porcine pepsin (Sus scrofa, UniProt P00791); assay: Peptide stability in simulated gastric fluid (SGF); format: in vitro ADME; details: for SGF stability, Residual peptide Average / SGF stability, Residual peptide: after 8 h vs 0 h (TIC); for SGF stability, Residual peptide Average: average of R1-R3; for SGF stability, Residual peptide: single replicates R1-R3; for remaining at 8 h: simulated gi fluid, 37 °C, pH 1.2, read-out: Proteolytic stability: SGF (8 h) % remaining
T2 construct: 0.32 g of porcine pepsin (Sigma-Aldrich, P7125) was dissolved under gentle agitation; purchased Sigma-Aldrich P7125
T2 sequence (P00791 60-385): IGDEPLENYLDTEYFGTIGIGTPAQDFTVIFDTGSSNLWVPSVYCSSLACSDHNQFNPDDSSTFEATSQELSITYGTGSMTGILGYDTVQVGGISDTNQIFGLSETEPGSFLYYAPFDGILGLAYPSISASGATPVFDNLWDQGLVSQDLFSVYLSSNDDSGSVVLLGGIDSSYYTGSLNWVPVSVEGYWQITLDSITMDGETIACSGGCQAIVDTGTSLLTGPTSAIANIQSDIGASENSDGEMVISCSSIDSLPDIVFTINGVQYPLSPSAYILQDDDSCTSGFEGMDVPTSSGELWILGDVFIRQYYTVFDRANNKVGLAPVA
Procedure, shortened: (§2)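 Peptide from a 1 mM DMSO stock was added to fluid pre-warmed at 37 °C. SGF was pH 1.2 NaCl with porcine pepsin (0.32 g per 100 ml), and SIF was pH 6.8 potassium phosphate with porcine pancreatin (1 g per 100 ml). Supernatant peptide was quantified by LC–MS, with residual expressed as T1/T0.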

[1] = Passive artificial membrane permeability (PAMPA); details: for PAMPA permeability: % permeability: 50 μM, 12–18 h, acceptor concentration relative to equilibrium; for Papp at 50 μM / Permeability% Average / Permeability% R1 / Permeability% R3: PAMPA; for Papp at 50 μM: pH 7.4; for Permeability% Average: average of R1-R3; for Permeability% R1: replicate R1; for Permeability% R1 / Permeability% R3: TIC of top well sample relative to sample at theoretical equilibrium; for Permeability% R3: replicate R3
Procedure: The plate system consisted of a 96-well microwell plate (donor wells) and a 96-well insert containing a PVDF membrane coated with tri-layers of phospholipids (acceptor wells). Permeability was measured from the bottom plate (donor wells) to the top insert (acceptor wells). Cyclic peptide or reference compound solutions were prepared at a concentration of 50 μM in PBS buffer (pH 7.4) containing 5% DMSO, and 300 μl of the resulting solutions was placed into the donor wells of the PAMPA plate. Acceptor wells were prepared by adding 200 μl of PBS buffer (pH 7.4) containing 5% DMSO. The insert was stacked onto the donor plate, and the system was covered with a lid to avoid evaporation. […] Additionally, 3:2 dilutions of the 50 μM cyclic peptide stocks were prepared in PBS buffer (pH 7.4) containing 5% DMSO to yield a sample corresponding to the theoretical equilibrium between donor and acceptor wells. The samples were run on the LC–MS to measure the cyclic peptide concentration representing maximum permeability. Permeability percent was calculated using equation (4) below.4 Permeability%=PeptideAcceptor/PeptideEquilibrated×100 where [PeptideAcceptor] represents the AUC measured on the LC–MS for the acceptor wells, and [PeptideEquilibrated] represents the AUC measured for the samples diluted to the theoretical equilibrium. Detection limit for the assay was typically at 1% permeability.
Papp values were calculated using equation (5).5 Papp=VD×VA/VD+VA×A×t×−ln1−PeptideAcceptor/PeptideEquilibrated where VD and VA are the volumes of donor and acceptor wells, respectively; A is the area of the membrane; and t is the incubation time.

[2] = Metabolic stability in rat liver microsomes (RLMs); details: rat, microsomes
porcine pancreatin = assay: Peptide stability in simulated intestinal fluid (SIF); format: in vitro ADME; details: after 8 h vs 0 h (TIC); for SIF stability, Residual peptide Average: average of R1-R3; for SIF stability, Residual peptide: single replicates R1-R3
Procedure, shortened: as §2

[3] = as above; format: in vitro ADME, porcine; details: simulated gi fluid; 8 h, 37 °C, pH 6.8; read-out: Proteolytic stability: SIF (8 h) % remaining
Procedure, shortened: as §2

human α-thrombin = human α-thrombin (Homo sapiens, UniProt P00734); assay: Protease inhibition, Ki for human α-thrombin (fluorogenic substrate Z-Gly-Gly-Arg-AMC); format: biochemical; details: replicates R1-R3
Procedure, shortened: as §1

[4] = peptide 1.33E+02 uM, slope of proteolytic substrate cleavage over time
[5] = CL (ul/min/mg protein) R1, RLM CL, replicate R1
[6] = CL (ul/min/mg protein) R2, RLM CL, replicate R2
[7] = CL (ul/min/mg protein) R3, RLM CL, replicate R3
[8] = Half Life (min) R1, RLM metabolic stability, replicate R1, 0-60 min
[9] = Half Life (min) R2, RLM metabolic stability, replicate R2, 0-60 min
[10] = Half Life (min) R3, RLM metabolic stability, replicate R3, 0-60 min
[11] = Metabolic stability: Half life T1/2 (min), RLMs, mean and SD, three measurements
[12] = Metabolic stability: RLM CL (ul/min/mg), RLMs, mean and SD, three measurements

SMILES: O=C1CCSC/C=C/CSCCNC(=O)[C@H](CNC(=O)c2ccc(Cl)s2)NC(=O)[C@H](Cc2ccccn2)N1 [compound 22]
- Rat alpha thrombin inhibition, slope normalized to DMSO (rat α-thrombin; [4]): 2.8 and 3.3 and 1.9
- Rat alpha thrombin inhibition, slope normalized to DMSO (rat α-thrombin; peptide 1.67E+01 uM): 7.6 and 6.1 and 7.2
- Rat alpha thrombin inhibition, slope normalized to DMSO (rat α-thrombin; peptide 2.08E+00 uM): 33.9 and 32.6 and 33.7
- Rat alpha thrombin inhibition, slope normalized to DMSO (rat α-thrombin; peptide 3.33E+01 uM): 4.8 and 4.2 and 4.5
- Rat alpha thrombin inhibition, slope normalized to DMSO (rat α-thrombin; peptide 4.17E+00 uM): 21.3 and 20.5 and 20.2
- Rat alpha thrombin inhibition, slope normalized to DMSO (rat α-thrombin; peptide 6.67E+01 uM): 3.3 and 2.6 and 2.7
- Rat alpha thrombin inhibition, slope normalized to DMSO (rat α-thrombin; peptide 8.33E+00 uM): 13.5 and 12.2 and 12.7
- SGF stability, Residual peptide Average (porcine pepsin): 96.43
- SGF stability, Residual peptide (porcine pepsin): 98.71 and 95.02 and 95.57
- remaining at 8 h (porcine pepsin): 96 ± 2%
- PAMPA permeability: % permeability [1]: 16 ± 7%
- Papp at 50 μM [1]: 1.05 ×10⁻⁶ cm/s
- Permeability% Average [1]: 15.5%
- Permeability% R1 [1]: 9.36%
- Permeability% R3 [1]: 23.67%
- microsomal CLint [2, 5]: 266 µL/min/mg
- microsomal CLint [2, 6]: 255 µL/min/mg
- microsomal CLint [2, 7]: 248 µL/min/mg
- half-life [2, 8]: 5.21 min
- half-life [2, 9]: 5.44 min
- half-life [2, 10]: 5.58 min
- half-life [2, 11]: 5.4 ± 0.2 min
- microsomal CLint [2, 12]: 260 ± 10 µL/min/mg
- SIF stability, Residual peptide Average (porcine pancreatin): 96.16
- SIF stability, Residual peptide (porcine pancreatin): 94.79 and 87.84 and 105.86
- remaining at 8 h [3]: 96 ± 9%
- Human alpha thrombin inhibition, slope normalized to DMSO (human α-thrombin; peptide 1.02E-03 uM): 102.8 and 97.7 and 93.9
- Human alpha thrombin inhibition, slope normalized to DMSO (human α-thrombin; peptide 1.04E+00 uM): 77.5 and 70.0 and 74.3
- Human alpha thrombin inhibition, slope normalized to DMSO (human α-thrombin; peptide 1.27E-04 uM): 100.4 and 110.4 and 99.0
- Human alpha thrombin inhibition, slope normalized to DMSO (human α-thrombin; peptide 1.30E-01 uM): 97.9 and 99.8 and 91.2
- Human alpha thrombin inhibition, slope normalized to DMSO (human α-thrombin; [4]): 5.1 and 4.3 and 6.3
- Human alpha thrombin inhibition, slope normalized to DMSO (human α-thrombin; peptide 1.63E-02 uM): 96.1 and 101.1 and 95.8
- Human alpha thrombin inhibition, slope normalized to DMSO (human α-thrombin; peptide 1.67E+01 uM): 20.9 and 21.1 and 17.2
- Human alpha thrombin inhibition, slope normalized to DMSO (human α-thrombin; peptide 2.03E-03 uM): 100.4 and 98.0 and 100.5
- Human alpha thrombin inhibition, slope normalized to DMSO (human α-thrombin; peptide 2.08E+00 uM): 66.4 and 63.2 and 62.8
- Human alpha thrombin inhibition, slope normalized to DMSO (human α-thrombin; peptide 2.54E-04 uM): 104.5 and 97.0 and 96.4
- Human alpha thrombin inhibition, slope normalized to DMSO (human α-thrombin; peptide 2.60E-01 uM): 95.1 and 92.0 and 90.3
- Human alpha thrombin inhibition, slope normalized to DMSO (human α-thrombin; peptide 3.18E-05 uM): 99.7 and 98.9 and 101.2
- Human alpha thrombin inhibition, slope normalized to DMSO (human α-thrombin; peptide 3.26E-02 uM): 99.6 and 98.9 and 96.4
- Human alpha thrombin inhibition, slope normalized to DMSO (human α-thrombin; peptide 3.33E+01 uM): 10.4 and 11.3 and 12.9
- Human alpha thrombin inhibition, slope normalized to DMSO (human α-thrombin; peptide 4.07E-03 uM): 102.1 and 98.1 and 100.5
- Human alpha thrombin inhibition, slope normalized to DMSO (human α-thrombin; peptide 4.17E+00 uM): 49.4 and 48.2 and 42.7
- Human alpha thrombin inhibition, slope normalized to DMSO (human α-thrombin; peptide 5.09E-04 uM): 105.6 and 97.1 and 101.8
- Human alpha thrombin inhibition, slope normalized to DMSO (human α-thrombin; peptide 5.21E-01 uM): 84.4 and 88.3 and 83.4
- Human alpha thrombin inhibition, slope normalized to DMSO (human α-thrombin; peptide 6.36E-05 uM): 104.9 and 95.6
- Human alpha thrombin inhibition, slope normalized to DMSO (human α-thrombin; peptide 6.51E-02 uM): 99.3 and 101.7 and 95.4
- Human alpha thrombin inhibition, slope normalized to DMSO (human α-thrombin; peptide 6.67E+01 uM): 5.8 and 5.7 and 8.8
- Human alpha thrombin inhibition, slope normalized to DMSO (human α-thrombin; peptide 8.14E-03 uM): 101.9 and 98.8 and 103.6
- Human alpha thrombin inhibition, slope normalized to DMSO (human α-thrombin; peptide 8.33E+00 uM): 31.4 and 24.4 and 30.5

SMILES: O=C1CCSCc2cccc(n2)CSCCNC(=O)C2CN(C(=O)c3ccc(Cl)s3)CCN2C(=O)[C@H](CO)N1 (some centres unmarked) [compound 24]
- Rat alpha thrombin inhibition, slope normalized to DMSO (rat α-thrombin; [4]): 3.2 and 2.1 and 2.4
- Rat alpha thrombin inhibition, slope normalized to DMSO (rat α-thrombin; peptide 1.67E+01 uM): 12.6 and 11.9 and 11.7
- Rat alpha thrombin inhibition, slope normalized to DMSO (rat α-thrombin; peptide 2.08E+00 uM): 49.1 and 48.5 and 49.4
- Rat alpha thrombin inhibition, slope normalized to DMSO (rat α-thrombin; peptide 3.33E+01 uM): 7.2 and 6.5 and 6.2
- Rat alpha thrombin inhibition, slope normalized to DMSO (rat α-thrombin; peptide 4.17E+00 uM): 33.5 and 33.2 and 33.1
- Rat alpha thrombin inhibition, slope normalized to DMSO (rat α-thrombin; peptide 6.67E+01 uM): 4.2 and 3.4 and 3.2
- Rat alpha thrombin inhibition, slope normalized to DMSO (rat α-thrombin; peptide 8.33E+00 uM): 18.9 and 18.7 and 17.7
- SGF stability, Residual peptide Average (porcine pepsin): 99.25
- SGF stability, Residual peptide (porcine pepsin): 102.40 and 99.33 and 96.01
- remaining at 8 h (porcine pepsin): 99 ± 3%
- PAMPA permeability: % permeability [1]: 2.0 ± 1.7%
- Papp at 50 μM [1]: 0.049 ×10⁻⁶ cm/s
- Permeability% Average [1]: 2.0%
- Permeability% R1 [1]: 0.0459%
- Permeability% R3 [1]: 3.39%
- microsomal CLint [2, 5]: 75.7 µL/min/mg
- microsomal CLint [2, 6]: 76.9 µL/min/mg
- microsomal CLint [2, 7]: 68.3 µL/min/mg
- half-life [2, 8]: 18.3 min
- half-life [2, 9]: 18 min
- half-life [2, 10]: 20.3 min
- half-life [2, 11]: 18.9 ± 1 min
- microsomal CLint [2, 12]: 74 ± 4 µL/min/mg
- SIF stability, Residual peptide Average (porcine pancreatin): 94.64
- SIF stability, Residual peptide (porcine pancreatin): 97.98 and 88.07 and 97.88
- remaining at 8 h [3]: 95 ± 6%
- Human alpha thrombin inhibition, slope normalized to DMSO (human α-thrombin; peptide 1.02E-03 uM): 95.9 and 98.2 and 97.4
- Human alpha thrombin inhibition, slope normalized to DMSO (human α-thrombin; peptide 1.04E+00 uM): 81.9 and 85.8 and 83.3
- Human alpha thrombin inhibition, slope normalized to DMSO (human α-thrombin; peptide 1.27E-04 uM): 100.0
- Human alpha thrombin inhibition, slope normalized to DMSO (human α-thrombin; peptide 1.30E-01 uM): 95.8 and 97.8
- Human alpha thrombin inhibition, slope normalized to DMSO (human α-thrombin; [4]): 5.8 and 7.8 and 9.3
- Human alpha thrombin inhibition, slope normalized to DMSO (human α-thrombin; peptide 1.63E-02 uM): 98.1 and 95.1
- Human alpha thrombin inhibition, slope normalized to DMSO (human α-thrombin; peptide 1.67E+01 uM): 24.2 and 34.4 and 34.5
- Human alpha thrombin inhibition, slope normalized to DMSO (human α-thrombin; peptide 2.03E-03 uM): 107.0
- Human alpha thrombin inhibition, slope normalized to DMSO (human α-thrombin; peptide 2.08E+00 uM): 75.9 and 67.7 and 77.5
- Human alpha thrombin inhibition, slope normalized to DMSO (human α-thrombin; peptide 2.54E-04 uM): 106.8 and 94.5 and 91.2
- Human alpha thrombin inhibition, slope normalized to DMSO (human α-thrombin; peptide 2.60E-01 uM): 93.5 and 89.6 and 97.8
- Human alpha thrombin inhibition, slope normalized to DMSO (human α-thrombin; peptide 3.18E-05 uM): 101.5 and 97.9 and 106.2
- Human alpha thrombin inhibition, slope normalized to DMSO (human α-thrombin; peptide 3.26E-02 uM): 103.3 and 97.7 and 104.2
- Human alpha thrombin inhibition, slope normalized to DMSO (human α-thrombin; peptide 3.33E+01 uM): 16.8 and 22.5 and 20.8
- Human alpha thrombin inhibition, slope normalized to DMSO (human α-thrombin; peptide 4.07E-03 uM): 97.2 and 91.1
- Human alpha thrombin inhibition, slope normalized to DMSO (human α-thrombin; peptide 4.17E+00 uM): 54.3 and 66.2 and 66.1
- Human alpha thrombin inhibition, slope normalized to DMSO (human α-thrombin; peptide 5.09E-04 uM): 94.9 and 97.9
- Human alpha thrombin inhibition, slope normalized to DMSO (human α-thrombin; peptide 5.21E-01 uM): 90.1 and 82.7 and 89.7
- Human alpha thrombin inhibition, slope normalized to DMSO (human α-thrombin; peptide 6.36E-05 uM): 101.8 and 98.6 and 104.2
- Human alpha thrombin inhibition, slope normalized to DMSO (human α-thrombin; peptide 6.51E-02 uM): 97.4 and 97.6
- Human alpha thrombin inhibition, slope normalized to DMSO (human α-thrombin; peptide 6.67E+01 uM): 12.2 and 13.3 and 13.7
- Human alpha thrombin inhibition, slope normalized to DMSO (human α-thrombin; peptide 8.14E-03 uM): 97.0 and 98.1 and 103.6
- Human alpha thrombin inhibition, slope normalized to DMSO (human α-thrombin; peptide 8.33E+00 uM): 51.4 and 50.3 and 44.5

— paper PMC11062899, “De novo development of small cyclic peptides that are orally bioavailable” (Nature Chemical Biology, 2023)
